Where two headings read alike, the source gives them in different places.
Columns and labels:
[1] = tested on: cellular cGAS activity in dsDNA-stimulated human whole blood; assay: Human whole blood assay (hWB IC50): IFNα2α production after dsDNA transfection; assay type: cell-based
In short: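 Citrated blood from healthy donors preincubated 60 min at room temperature with compound (top 10 µM, ~1:5 steps, 0.1% DMSO), then transfected with dsDNA/Fugene and incubated 22 h at 37 °C. Plasma IFNα2α measured by MSD immunoassay; IC50 from 4-parameter fit of % control (stimulated vs unstimulated).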

cGAS = cGAS (Homo sapiens (Human), UniProt Q8N884); assay: Human cGAS enzyme assay (hcGAS IC50, in vitro), cGAMP formation by RapidFire MS; assay type: biochemical;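 further: enzyme activated by 45 bp dsDNA with GTP and ATP (30 µM each), 60 min compound pre-incubation then 90 min reaction, cGAMP relative to cyclic-di-GMP internal standard, 8-point dilutions up to 10 µM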
[2] = tested on: cellular cGAS activity in baculovirus-stimulated THP1-Dual cells (IRF dependent Lucia luciferase reporter); assay: Human cGAS cell assay: inhibition of IFN induction in virus-stimulated THP1 cells (THP1(vir) IC50); assay type: cell-based; details: Homo sapiens, THP1-Dual
In short: (§1)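 THP1-Dual cells with IRF-dependent Lucia luciferase reporter, stimulated by empty baculovirus (dsDNA delivery activating cGAS) or, for the counter assay, directly by cGAMP. 5000 cells/well, 8 concentrations from 10 μM top, 1% DMSO, 18 h at 37 °C; luminescence read, IC50 by 4-parameter logistic fit versus unstimulated low control.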

[3] = tested on: cGAMP-stimulated THP1-Dual cells (pathway directly downstream of cGAS); assay: cGAMP stimulated counter cell assay: inhibition of IFN induction in cGAMP-stimulated THP1 cells (THP1(cGAMP) IC50); assay type: cell-based, human; details: for IC50: Homo sapiens, THP1-Dual, read-out: THP1(cGAMP) IC50 (converted); for Ratio THP1(cGAMP) IC50 / THP1(vir) IC50: selectivity for cGAS inhibition
In short: as §1

[4] = inhibition of IFN induction in dsDNA-stimulated human whole blood
[5] = biochemical (in vitro) cGAS inhibition
[6] = inhibition of IFN induction in virus-stimulated THP1 cells, read-out: THP1(vir) IC50
[7] = inhibition of IFN induction in cGAMP-stimulated THP1 cells
[8] = dsDNA-stimulated human whole blood, IFN induction
[9] = biochemical (in vitro), human cGAS, 45 bp dsDNA, GTP/ATP
[10] = cGAMP-stimulated THP1 cells, counter assay
[11] = read-out: THP1(vir) IC50, virus-stimulated THP1 cells, IFN induction

cGAS, sequence (Q8N884 whole entry): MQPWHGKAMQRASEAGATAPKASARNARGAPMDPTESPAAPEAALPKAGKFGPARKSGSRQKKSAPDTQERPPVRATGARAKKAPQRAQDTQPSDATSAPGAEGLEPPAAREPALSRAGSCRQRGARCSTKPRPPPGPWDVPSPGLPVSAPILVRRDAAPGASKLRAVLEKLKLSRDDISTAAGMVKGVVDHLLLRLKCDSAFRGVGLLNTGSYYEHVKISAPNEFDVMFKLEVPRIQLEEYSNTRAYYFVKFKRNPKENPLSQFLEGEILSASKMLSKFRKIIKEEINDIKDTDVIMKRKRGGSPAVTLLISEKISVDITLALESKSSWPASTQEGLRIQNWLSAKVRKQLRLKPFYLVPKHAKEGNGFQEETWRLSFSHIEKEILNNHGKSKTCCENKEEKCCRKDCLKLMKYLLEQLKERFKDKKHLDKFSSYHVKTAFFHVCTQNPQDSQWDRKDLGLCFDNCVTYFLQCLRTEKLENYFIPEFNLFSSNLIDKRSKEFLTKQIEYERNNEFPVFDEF

Structure (SMILES) | IC50 [1, 4] [nM] | IC50 (cGAS; [5]) [nM] | IC50 [2, 6] [nM] | IC50 [3, 7] [µM] | Ratio THP1(cGAMP) IC50 / THP1(vir) IC50 [3] | IC50 [1, 8] [nM] | IC50 (cGAS; [9]) [nM] | IC50 ([2]; virus-stimulated THP1 cells, IFN induction, read-out: THP1(vir) IC50) [nM] | IC50 [3, 10] [µM] | IC50 [2, 11] [nM]
C#Cc1cnc(O[C@H]2C[C@@H](C(=O)O)N(c3nc(C(F)F)nc4c3oc3ccccc34)C2)c(N2CCOCC2)c1 [Example 2.01, (2S,4S)-1-[4-(Difluoromethyl)-8-oxa-3,5-diazatricyclo[7.4.0.0^2,7]trideca-1(13),2,4,6,9,11-hexzen-6-yl]-4-{[5-ethynyl-3-(morpholin-4-yl)pyridin-2yl]oxy}-pyrrolidine-2-carboxylic acid] | 506 | 8 | 858 | > 16.6 | >19 | – | – | – | – | –
C#Cc1cnc(O[C@H]2C[C@@H](C(=O)O)N(c3nc(Cl)nc4c3oc3ccccc34)C2)c(N2CCOC3(COC3)[C@@H]2C)c1 [Example 2.05] | 8 | 2 | 4 | 10.8 | 3018 | – | – | – | – | –
C[C@H]1COCCN1c1cc(Br)cnc1O[C@H]1C[C@@H](C(=O)O)N(c2nc(C(F)F)nc3c2oc2ccccc23)C1 [Example 1.28] | 629 | 3 | 500 | > 16.6 | >33 | – | – | – | – | –
C[C@H]1COC[C@H](C)N1c1cc(Br)cnc1O[C@H]1C[C@@H](C(=O)O)N(c2nc(C(F)F)nc3c2oc2ccccc23)C1 [Example 1.26] | 475 | 10 | 583 | 9.93 | 17 | – | – | – | – | –
C[C@@H]1N(c2cc(-c3ccc(C#N)nc3)cnc2O[C@H]2C[C@@H](C(=O)O)N(c3nc(C(F)(F)F)nc4c3oc3ccccc34)C2)CCOC12COC2 [Example 3.23] | 70 | 8 | 10 | 10 | 1029 | – | – | – | – | –
COC(=O)[C@@H]1C[C@H](Oc2ncc(-c3cccnc3OC)cc2N2CCOC3(COC3)[C@@H]2C)CN1c1nc(C(F)(F)F)nc2c1oc1ccccc12 [Example P04] | – | – | – | – | – | 2750 | > 9950 | 67 | > 16.6 | –
COC(=O)[C@@H]1C[C@H](Oc2ncc(Br)cc2N2CCOC3(COC3)[C@@H]2C)CN1c1nc(C(F)(F)F)nc2c1oc1ccccc12 [Example P02] | – | – | – | – | – | 5330 | > 9950 | – | 17.1 | 444
C[C@H]1CN(C#N)CCN1c1cc(Br)cnc1O[C@H]1C[C@@H](C(=O)O)N(c2nc(C(F)F)nc3c2oc2ccccc23)C1 [Example 1.18] | 226 | 4 | 239 | 6.51 | 27 | – | – | – | – | –
C[C@@H]1N(c2cc(-c3ccnc([S+](C)[O-])c3)cnc2O[C@H]2C[C@@H](C(=O)O)N(c3nc(C(F)F)nc4c3oc3ccccc34)C2)CCOC12COC2 (stereo partly drawn) [Example 5.01, (2S,4S)-1-[4-(Difluoromethyl)-8-oxa-3,5-diazatricyclo[7.4.0.0^2,7]trideca-1(9),2(7),3,5,10,12-hexaen-6-yl]-4-({2′-methanesulfinyl-5-[(95)-9-methyl-2,5-dioxa-8-azaspiro[3.5]nonan-8-yl]-[3,4′-bipyridin]-6-yl}oxy)pyrrolidine-2-carboxylic acid] | 239 | 5 | 579 | 22.1 | 38 | – | – | – | – | –
C#Cc1cnc(O[C@H]2C[C@@H](C(=O)O)N(c3nc(C(F)(F)Cl)nc4c3oc3ccccc34)C2)c(N2CCOC3(COC3)[C@@H]2C)c1 [Example 1.16] | 23 | 3 | 7 | 15 | 2209 | – | – | – | – | –
COC(=O)[C@@H]1C[C@H](Oc2ncccc2N2CCOC3(COC3)[C@@H]2C)CN1c1nc(C(F)F)nc2c1oc1ccccc12 [Example P01, Methyl (2S,4S)-4-({3-[(9S)-9-methyl-2,5-dioxa-8-azaspiro[3.5]nonan-8-yl]pyridin-2-yl}oxy)-1-[4-(difluoromethyl)-8-oxa-3,5-diazatricyclo[7.4.0.0^2,7]trideca-1(9),2(7),3,5,10,12-hexaen-6-yl]pyrrolidine-2-carboxylate] | – | – | – | – | – | 1310 | > 9960 | – | 26.1 | 358
